Data set [1] deals with male NMRI-mice. The data set can be described thus: minimum symptom dose (procedure of Campbell and Richter). It is filed as in vivo, mouse. To be noted: i.p., changes in behavior in 2 out of 3 mice. How it is done: The minimum symptom dose is determined in male NMRI-mice (body weight range 18-22 g) according to the procedure of Campbell and Richter (see D.E.S. Campbell and W. Richter, Acta Pharmacol Toxicol, 25 (1967), pp 345-363). The minimum symptom dose is defined as that dose in μmol/kg which after i.p. administration causes changes in behavior in 2 out of 3 mice. The minimum symptom dose is a measure for evaluating undesirable side effects.

Data set [2] relates to isolated left atria of female guinea pigs. The data set can be described thus: functional refractory period (FRP) and contraction force (CF) in isolated left atria, double stimulus method of Govier. On the set-up: species or system guinea pig. As to conditions: for IC25 / EC25: Cavia porcellus, 0.3 h; for IC25: read-out: CF (concentration reducing contraction force to 75% of starting value); for EC25: read-out: FRP (concentration prolonging functional refractory period to 125% of starting value); for ratio between contraction force-reducing dose and functional refractory period-prolonging dose (CF/FRP): indication of the therapeutic range of the antiarrhythmic effect on the isolated organ, 18 min. The method, then:
The prolongation of the functional refractory period (FRP) and the contraction force (CF) in the isolated left atria of female guinea pigs (albino Pirbright-white guinea pigs, body weight 300-400 g) are determined according to the double stimulus method of Govier (see W.C. Govier, J. Pharmakol. Exp. Ther. 148 (1965) pp 100-105). The concentrations which are given in the table below are the concentrations in μmol/l which 18 minutes after application leads to a prolongation of the functional refractory period to 125% or respectively to a reduction of the contraction force to 75% of the starting value. Furthermore, the ratio between contraction force-reducing dose and functional refractory period-prolonging dose is given. This ratio is an indication of the therapeutic range of the antiarrhythmic effect on the isolate organ (see K. Gref, Verh. Dtsch. Ges. Kreislaufforsch. 35 (1969) pp 88-97).

Data set [3] deals with male NMRI-mice. Briefly: acute toxicity (LD50, 7th day after application). It is filed as in vivo, mouse. As to conditions: mortality on 7th day, 10080 min; for LD50 p.o.: oral. The method, then:
(§1) The acute toxicity of the compounds is determined in male NMRI-mice (body weight range 18-22 g) after oral (p.o) and intraperitonal (i.p.) administration. The LD50 is defined as that dose in μmole/kg which causes a 50% mortality rate of the test animals on the 7th day after application. The calculation of the LD50 is carried out by probitanalysis (see L. Cavalli-Sforza, Grundbegriffe der Biometrie, Gustav Fischer Verlag, Stuttgart, (1964)).

Data set [4] in a line: acute toxicity (LD50, 7th day after application). It is filed as in vivo, mouse. To be noted: mouse, in vivo, male NMRI-mice, mortality on 7th day. How it is done: as §1
Where [5] appears, read: isolated guinea pig left atria, 18 minutes after application.
Setting [6] is: ip, intraperitoneal, read-out: LD50 i.p.

The term LD50 denotes the dose at which mortality reaches 50%.

Counter-ions that a name gives are not always drawn. Like-named read-outs stand apart in the source and are kept apart here.

For the compound `CCC[N+]12C(O)C(CC)C3CC1C1N(C)c4ccc(Br)cc4C14CC2C3C4O` (stereo not drawn) [Example 2.b, Nb-n-propyl-10-bromosandwicinium hydrogen tartrate], the “Min. Symptom-dose” value in the data set with male NMRI-mice [1] is 42 µmol/kg. In addition, in data set [2] (setting [5]), the IC25 was 4.7 µM and the EC25 was found to be 1.4 µM. Further, the “ratio between contraction force-reducing dose and functional refractory period-prolonging dose (CF/FRP)” value in data set [2] is listed as 3.3. The compound further had an LD50 p.o. with male NMRI-mice [3] of 1133 µmol/kg. In data set [4] (setting [6]), the LD50 at 168 h came out at 101 µmol/kg.
`CCC[N+]12C(O)C(CC)C3CC1C1N(C)c4ccccc4C14CC2C3C4O` (stereo not drawn) [Neo-Gilurytmal, Nb -propylajmalinium hydrogen tartrate, reference compound]: the “Min. Symptom-dose” value with male NMRI-mice [1] came to 12 µmol/kg. Also, in data set [2] (setting [5]), the IC25 was 0.26 µM and the EC25 is 1.8 µM. The “ratio between contraction force-reducing dose and functional refractory period-prolonging dose (CF/FRP)” value in data set [2] was 0.15. For the same compound, in data set [4] (setting [6]), the LD50 at 168 h was determined as 41 µmol/kg. Moreover, in data set [4] (po, read-out: LD50 p.o.), the LD50 at 168 h was 65 µmol/kg.
For `CCCCCC[N+]12C(O)C(CC)C3CC1C1N(C)c4ccc(Br)cc4C14CC2C3C4O` (stereo not drawn) [Example 4.b, Nb-n-hexyl-10-bromosandwicinium hydrogen tartrate], the “Min. Symptom-dose” value in the data set on male NMRI-mice [1] came to 39 µmol/kg. In addition, the IC25 in data set [2] (setting [5]) came to 2 µM. In addition, in data set [2] (setting [5]), the EC25 worked out at 4.3 µM. Further, the “ratio between contraction force-reducing dose and functional refractory period-prolonging dose (CF/FRP)” value in data set [2] was 0.5. The LD50 at 168 h in data set [4] (setting [6]) is 112 µmol/kg; in data set [4] (po, read-out: LD50 p.o.), > 2300 µmol/kg.
With `CCC1C2CC3C4N(C)c5ccc(Br)cc5C45CC(C2C5O)[N+]3(C)C1O` (stereo not drawn) [Example 1.b, Nb-methyl-10-bromosandwicinium hydrogen tartrate], the “Min. Symptom-dose” value in the data set on male NMRI-mice [1] came to 11 µmol/kg. Also, in data set [2] (setting [5]), the IC25 is 20.2 µM and the EC25 amounted to 3.2 µM. The “ratio between contraction force-reducing dose and functional refractory period-prolonging dose (CF/FRP)” value in data set [2] is recorded as 6.4. In data set [4] (setting [6]), the LD50 at 168 h is 325 µmol/kg. Besides, the LD50 at 168 h in data set [4] (po, read-out: LD50 p.o.) was found to be 1910 µmol/kg.
On to `CCC[N+]12C(O)C(CC)C3CC1C1N(C)c4ccc(Br)cc4C14CC2C3C4O` (stereo not drawn) [Example 12.b, Nb-n-propyl-10-bromoisosandwicinium hydrogen tartrate], for which the “Min. Symptom-dose” value in the data set with male NMRI-mice [1] turned out to be 10 µmol/kg. The “ratio between contraction force-reducing dose and functional refractory period-prolonging dose (CF/FRP)” value in data set [2] stood at 3.6. In addition, in data set [2] (setting [5]), the “CF (concentration reducing contraction force to 75% of starting value)” value was 6.5 µmol/L and the “FRP (concentration prolonging functional refractory period to 125% of starting value)” value is 1.8 µmol/L. Besides, the LD50 i.p. in the data set on male NMRI-mice [3] (intraperitoneal) stood at 118 µmol/kg. In addition, the LD50 p.o. in the data set with male NMRI-mice [3] came out at 566 µmol/kg.
As to `CCC1C2CC3C4N(C)c5ccc(Br)cc5C45CC(C2C5O)[N+]3(CC(O)CN2CCCCC2)C1O` (stereo not drawn) [Example 8, Nb-[2-hydroxy-3-(1-piperidinyl)propyl]-10-bromosandwicinium bishydrogen tartrate], the “Min. Symptom-dose” value in the data set on male NMRI-mice [1] came out at 59 µmol/kg. Further, in data set [2] (setting [5]), the IC25 came out at 3.4 µM and the EC25 was found to be 8.3 µM. In addition, the “ratio between contraction force-reducing dose and functional refractory period-prolonging dose (CF/FRP)” value in data set [2] worked out at 0.4. Moreover, in data set [4] (setting [6]), the LD50 at 168 h is 169 µmol/kg. Also, the LD50 at 168 h in data set [4] (po, read-out: LD50 p.o.) was 1190 µmol/kg.

These data come from US4552877A, “Nb -Quaternary derivatives of sandwicine and isosandwicine methods and intermediate products in the manufacture of their derivatives and methods of using same and pharmaceutical compositions thereof” (Kali-Chemie Pharma GmbH, priority 1979, dated 1985).
